One may read the IC50 as the point on the concentration scale where inhibition reaches its midpoint.

Assay [1] has as its target JAK3 (Homo sapiens (Human), UniProt P52333). Nature of the assay: Jak Biochemical HTRF Assay (JAK3). Conditions: recombinant GST-tagged catalytic domain, [ATP] 2.9 μM. (In general: TR-FRET usually uses a lanthanide donor and a delayed reading to cut background.)
The target in assay [2] is JAK2 (Homo sapiens (Human), UniProt O60674). Nature of the assay: Jak Biochemical HTRF Assay (JAK2). As to conditions: recombinant GST-tagged catalytic domain, [ATP] 8.5 μM.
Chain of JAK2 (O60674 849-1124): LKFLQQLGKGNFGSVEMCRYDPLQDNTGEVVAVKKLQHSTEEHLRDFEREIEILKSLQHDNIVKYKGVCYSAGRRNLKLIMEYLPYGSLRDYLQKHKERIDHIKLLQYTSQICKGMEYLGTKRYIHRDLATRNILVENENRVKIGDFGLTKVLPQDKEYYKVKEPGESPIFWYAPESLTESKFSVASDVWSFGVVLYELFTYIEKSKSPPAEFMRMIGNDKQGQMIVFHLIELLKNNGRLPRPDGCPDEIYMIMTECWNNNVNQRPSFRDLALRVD

Some results are limits rather than exact numbers.

Chain of JAK3 (P52333 822-1111): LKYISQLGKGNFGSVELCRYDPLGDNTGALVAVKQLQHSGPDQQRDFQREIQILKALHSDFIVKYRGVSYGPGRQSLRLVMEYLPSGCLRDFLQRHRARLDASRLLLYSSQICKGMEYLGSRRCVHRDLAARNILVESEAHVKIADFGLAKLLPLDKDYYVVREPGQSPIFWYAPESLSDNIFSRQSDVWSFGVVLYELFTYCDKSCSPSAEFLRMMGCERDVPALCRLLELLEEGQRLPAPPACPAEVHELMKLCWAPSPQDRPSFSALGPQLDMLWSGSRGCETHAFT

Consider `CCOC(=O)c1c[nH]c2ncnc(-c3cccc(Nc4nc(Cl)ns4)c3)c12` [Example 6-1, Ethyl 4-{3-[(3-chloro-1,2,4-thiadiazol-5-yl)amino]phenyl}-7H-pyrrolo[2,3-d]pyrimidine-5-carboxylate], for which the values for the IC50 in assay [1] and in assay [2] were 9.2 nM and 109 nM, respectively.

As for `CCOC(=O)c1c[nH]c2ncnc(-c3cccc(Nc4nccnc4C#N)c3)c12` [Example 6-2, Ethyl-4-{3-[(3-cyanopyrazin-2-yl)amino]phenyl}-7H-pyrrolo[2,3-d]pyrimidine-5-carboxylate], the figures for the IC50 in assay [1] (given as range class) and in assay [2] (given as range class) were 10 to 500 nM and over 500 nM, respectively.

`CCOC(=O)c1c[nH]c2ncnc(-c3cccc(Nc4ncnc(C#N)n4)c3)c12` [Example 6-3, ethyl 4-{3-[(4-cyano-1,3,5-triazin-2-yl)amino]phenyl}-7H-pyrrolo[2,3-d]pyrimidine-5-carboxylate]: the IC50 in assay [1] (given as range class) and in assay [2] (given as range class) was 10 to 500 nM throughout.

With `CCOC(=O)c1c[nH]c2ncnc(-c3cccc(Nc4nc(C#N)ns4)c3)c12` [Example 6-4, ethyl 4-{3-[(3-cyano-1,2,4-thiadiazol-5-yl)amino]phenyl}-7H-pyrrolo[2,3-d]pyrimidine-5-carboxylate], the IC50 in assay [1] (given as range class) is 10 to 500 nM; in assay [2] (given as range class), over 500 nM.

Turning to `CCOC(=O)c1c[nH]c2ncnc(-c3cccc(-c4ccnc(C#N)n4)c3)c12` [Example 7-1, Ethyl 4-(3-(2-cyanopyrimidin-4-yl)phenyl)-7H-pyrrolo[2,3-d]pyrimidine-5-carboxylate], the figures for the IC50 in assay [1] (given as range class) and in assay [2] (given as range class) were 10 to 500 nM and over 500 nM, respectively.

Regarding `CCOC(=O)c1c[nH]c2ncnc(-c3cccc(-c4nc(Cl)ns4)c3)c12` [Example 7-2, ethyl 4-(3-(3-chloro-1,2,4-thiadiazol-5-yl)phenyl)-7H-pyrrolo[2,3-d]pyrimidine-5-carboxylate], the IC50 was 10 to 500 nM in assay [1] (given as range class) and over 500 nM in assay [2] (given as range class).

As to `CCOC(=O)c1c[nH]c2ncnc(-c3cccc(-c4nc(Br)ns4)c3)c12` [Example 7-3, ethyl 4-(3-(3-bromo-1,2,4-thiadiazol-5-yl)phenyl)-7H-pyrrolo[2,3-d]pyrimidine-5-carboxylate], the IC50 was 10 to 500 nM in assay [1] (given as range class) and over 500 nM in assay [2] (given as range class).

Consider `CCOC(=O)c1c[nH]c2ncnc(-c3cccc(-c4nc(C#N)ns4)c3)c12` [Example 7-4, Ethyl 4-(3-(cyano-1,2,4-thiadiazol-5-yl)phenyl)-7H-pyrrolo[2,3-d]pyrimidine-5-carboxylate], for which the results for the IC50 in assay [1] (given as range class) and in assay [2] (given as range class) were 10 to 500 nM and over 500 nM, respectively.

For `CCOC(=O)c1c[nH]c2ncnc(-c3cccc(C(=O)NCC#N)c3)c12` [Example 8-1], the IC50 in assay [1] (given as range class) was 10 to 500 nM; in assay [2] (given as range class), over 500 nM.

In the case of `CCOC(=O)c1c[nH]c2ncnc(-c3cccc(NC(=O)NCC#N)c3)c12` [Example 9-1, Ethyl 4-(3-(3-(cyanomethyl)ureido)phenyl)-7H-pyrrolo[2,3-d]pyrimidine-5-carboxylate], the IC50 is 10 to 500 nM in assay [1] (given as range class) and over 500 nM in assay [2] (given as range class).

Take `CCOC(=O)c1c[nH]c2ncnc(-c3cccc(NC(=O)NC#N)c3)c12` [Example 9-2, ethyl 4-(3-(3-cyanoureido)phenyl)-7H-pyrrolo[2,3-d]pyrimidine-5-carboxylate]: the IC50 in assay [1] (given as range class) and in assay [2] (given as range class) was 10 to 500 nM each time.

`C=CS(=O)(=O)Nc1cccc(-c2ncnc3[nH]cc(C(=O)OCC)c23)c1` [Example 10-1, Ethyl 4-{3-[(ethenylsulfonyl)amino]phenyl}-7H-pyrrolo[2,3-d]pyrimidine-5-carboxylate]: the IC50 in assay [1] was 0.037 nM; in assay [2], over 1500 nM.

As for `C/C=C/S(=O)(=O)Nc1cccc(-c2ncnc3[nH]cc(C(=O)OCC)c23)c1` [Example 10-2, ethyl 4-(3-{[(1E)-prop-1-en-1-ylsulfonyl]amino}phenyl)-7H-pyrrolo[2,3-d]pyrimidine-5-carboxylate], the IC50 in assay [1] is 8.2 nM; in assay [2], over 1500 nM.

`C=C(C)S(=O)(=O)Nc1cccc(-c2ncnc3[nH]cc(C(=O)OCC)c23)c1` [Example 10-3, ethyl 4-(3-{[(1-methylethenyl)sulfonyl]amino}phenyl)-7H-pyrrolo[2,3-d]pyrimidine-5-carboxylate]: the IC50 in assay [1] (given as range class) is 10 to 500 nM; in assay [2] (given as range class), over 500 nM.

Turning to `C=C(C)C(=O)Nc1cc(-c2ncnc3[nH]cc(C(=O)OC)c23)ccc1F` [Example 11-1, Methyl 4-{4-fluoro-3-[(2-methylacryloyl)amino]phenyl}-7H-pyrrolo[2,3-d]pyrimidine-5-carboxylate], the IC50 is 0.4 nM in assay [1] and over 1500 nM in assay [2].

As to `C=C(C)C(=O)Nc1cccc(-c2ncnc3[nH]cc(C(=O)OC)c23)c1` [Example 11-2, methyl 4-{3-[(2-methylacryloyl)amino]phenyl}-7H-pyrrolo[2,3-d]pyrimidine-5-carboxylate], the IC50 in assay [1] was 2 nM; in assay [2] it was over 1500 nM.

For `C=CC(=O)N(C)c1cccc(-c2ncnc3[nH]cc(C(=O)OCC)c23)c1` [Example 12-1, Ethyl 4-(3-(N-methylacrylamido)phenyl)-7H-pyrrolo[2,3-d]pyrimidine-5-carboxylate], the IC50 was 0.13 nM in assay [1] and over 1500 nM in assay [2].

`C=C(CNS(C)(=O)=O)C(=O)Nc1cccc(-c2ncnc3[nH]cc(C(=O)OCC)c23)c1` [Example 13-1, Ethyl 4-(3-(2-(methylsulfonamidomethyl)acrylamido)phenyl)-7H-pyrrolo[2,3-d]pyrimidine-5-carboxylate]: the values for the IC50 in assay [1] and in assay [2] were 0.052 nM and over 1500 nM, respectively.

In the case of `C=C(CN)C(=O)Nc1cccc(-c2ncnc3[nH]cc(C(=O)OCC)c23)c1` [Example 13-2, Ethyl 4-(3-(2-(aminomethyl)acrylamido)phenyl)-7H-pyrrolo[2,3-d]pyrimidine-5-carboxylate], the IC50 in assay [1] (given as range class) was under 10 nM; in assay [2], over 1500 nM.

Regarding `C=C(CNC(C)=O)C(=O)Nc1cccc(-c2ncnc3[nH]cc(C(=O)OCC)c23)c1` [Example 13-3, ethyl 4-(3-(2-(acetamidomethyl)acrylamido)phenyl)-7H-pyrrolo[2,3-d]pyrimidine-5-carboxylate], the IC50 is under 10 nM in assay [1] (given as range class) and over 1500 nM in assay [2].

`C=C(CN(C)C)C(=O)Nc1cccc(-c2ncnc3[nH]cc(C(=O)OCC)c23)c1` [Example 14, Ethyl-4-[3-({2-[(dimethylamino)methyl]acryloyl}amino)phenyl]-7H-pyrrolo[2,3-d]pyrimidine-5-carboxylate]: the IC50 in assay [1] was 0.066 nM; in assay [2] it was over 1500 nM.

Turning to `C=C(CF)C(=O)Nc1cccc(-c2ncnc3[nH]cc(C(=O)OCC)c23)c1` [Example 15-1, Ethyl-4-(3-{[2-(fluoromethyl)acryloyl]amino}phenyl)-7H-pyrrolo[2,3-d]pyrimidine-5-carboxylate], the figures for the IC50 in assay [1] and in assay [2] were 0.024 nM and over 1500 nM, respectively.

Take `C=C(CO)C(=O)Nc1cccc(-c2ncnc3[nH]cc(C(=O)OCC)c23)c1` [Example 15-2, Ethyl-4-(3-{[2-(hydroxymethyl)acryloyl]amino}phenyl)-7H-pyrrolo[2,3-d]pyrimidine-5-carboxylate]: the IC50 was 0.02 nM in assay [1] and over 1500 nM in assay [2].

As for `CCOC(=O)c1c[nH]c2ncnc(-c3cccc(NC(=O)/C=C/CN(C)C)c3)c12` [Example 16, Ethyl-4-(3-{[(2E)-4-(dimethylamino)but-2-enoyl]amino}phenyl)-7H-pyrrolo[2,3-d]-pyrimidine-5-carboxylate], the IC50 is 0.2 nM in assay [1] and over 1500 nM in assay [2].

Turning to `CCOC(=O)c1c[nH]c2ncnc(-c3cccc(NC(=O)/C(C)=C/CN(C)C)c3)c12` [Example 17, Ethyl 4-(3-{[(2E)-4-(dimethylamino)-2-methylbut-2-enoyl]amino}phenyl)-7H-pyrrolo[2,3-d]pyrimidine-5-carboxylate], the values for the IC50 in assay [1] and in assay [2] were 6.6 nM and over 1500 nM, respectively.

`CCOC(=O)c1c[nH]c2ncnc(-c3cccc(NC(=O)C4(C)CO4)c3)c12` (stereo not shown) [Example 18-1, Ethyl-4-(3-(2-methyloxirane-2-carboxamido)phenyl)-7H-pyrrolo[2,3-d]pyrimidine-5-carboxylate]: the 50% inhibitory concentration (IC50) in assay [1] is 0.056 nM; in assay [2], over 1500 nM.

Regarding `CCOC(=O)c1c[nH]c2ncnc(-c3cccc(NC(=O)C(C)(O)CO)c3)c12` (stereo not shown) [Example 18-2, Ethyl-4-(3-(2,3-dihydroxy-2-methylpropanamido)phenyl)-7H-pyrrolo[2,3-d]pyrimidine-5-carboxylate], the IC50 in assay [1] (given as range class) was 10 to 500 nM; in assay [2] (given as range class) it was over 500 nM.

With `C=C(C)C(=O)Nc1cccc(-c2ncnc3[nH]cc(-c4ccc(CN)cc4)c23)c1` [Example 19, N-(3-{5-[4-(Aminomethyl)phenyl]-7H-pyrrolo[2,3-d]pyrimidin-4-yl}phenyl)-2-methylprop-2-enamide], the half-inhibitory concentration (IC50) was 10 to 500 nM in assay [1] (given as range class) and over 500 nM in assay [2] (given as range class).

Consider `C=C(C)C(=O)Nc1cccc(-c2ncnc3[nH]cc(-c4cccc(C)c4)c23)c1` [Example 20-1, 2-Methyl-N-{3-[5-(3-methylphenyl)-7H-pyrrolo[2,3-d]pyrimidin-4-yl]phenyl}prop-2-enamide], for which the IC50 in assay [1] was 0.17 nM; in assay [2] it was over 1500 nM.

On to `C=C(C)C(=O)Nc1cccc(-c2ncnc3[nH]cc(-c4cccc(F)c4)c23)c1` [Example 20-2, N-{3-[5-(3-fluorophenyl)-7H-pyrrolo[2,3-d]pyrimidin-4-yl]phenyl}-2-methylprop-2-enamide], for which the results for the half-maximal inhibitory concentration (IC50) in assay [1] and in assay [2] were 0.59 nM and over 1500 nM, respectively.

On to `C=C(C)C(=O)Nc1cccc(-c2ncnc3[nH]cc(-c4ccccc4F)c23)c1` [Example 20-3, N-{3-[5-(2-fluorophenyl)-7H-pyrrolo[2,3-d]pyrimidin-4-yl]phenyl}-2-methylprop-2-enamide], for which the IC50 in assay [1] is 0.96 nM; in assay [2], over 1500 nM.

Regarding `C=C(C)C(=O)Nc1cccc(-c2ncnc3[nH]cc(-c4ccc(F)cc4)c23)c1` [Example 20-4, N-{3-[5-(4-fluorophenyl)-7H-pyrrolo[2,3-d]pyrimidin-4-yl]phenyl}-2-methylprop-2-enamide], the IC50 in assay [1] is 1.5 nM; in assay [2], over 1500 nM.

Values taken from patent publication US8993756B2 (Merck Sharp & Dohme Corp., priority 2011, dated 2015).
